Test results from US12692229B2, “Masp-2 inhibitors and methods of use” (Omeros Corporation, priority 2019, dated 2026).
Structures can show the parent of a compound that is named as a salt.

target: T1, MASP-2 (CCP1-CCP2-SP) (Homo sapiens, UniProt O00187); test: Enzymatic Assay for MASP-2 (fluorogenic substrate); assay type: biochemical; conditions: room temperature, 20 mM HEPES pH 7.4, 140 mM NaCl, 0.1% Tween 20, 20 min
T1 construct: 15 μL of Enzyme MASP-2 (CCP1-CCP2-SP) in Assay Buffer
Method: Enzymatic Assay for MASP-2
The MASP-2 assay utilizes a fluorogenic substrate, based on the cleavage site for its natural substrate C2. The assay is run at room temperature in an assay buffer containing 20 mM HEPES, pH 7.4, 140 mM NaCl and 0.1% Tween 20. Assay parameters are adjusted such that the assay is linear with respect to time, enzyme, and substrate concentrations. Under these optimized assays conditions, IC50 values are equivalent to Ki values, except in a few cases of “tight binding” inhibitors. Cases of “tight binding” or possible “slow binding” inhibitors are handled by the methods described in Copeland R. A. (2013) Evaluation of Enzyme Inhibitors in Drug Discovery. 2nd Ed., John Wiley and Sons, Inc., Chapters 5-7.
The MASP-2 assay protocol is carried out as follows. Test compounds are serially diluted in DMSO and then 100 nL of each dilution is transferred to the assay plate(s). 10 μL of Assay Buffer is added, followed by 15 μL of Enzyme MASP-2 (CCP1-CCP2-SP) in Assay Buffer. 15 μL of Substrate in Assay Buffer is then added and mixed to start the reactions. After 20 min at room temperature, 15 μL of a stop solution (0.1 M acetic acid) is added, mixed and the plates are read on a SpectraMax i3× Microplate Reader and exported as Excel files. Each assay plate included a “no inhibitor” (DMSO Only) control, a “no enzyme” control and a reference inhibitor control. % Activity values=100*(average test comp. fluorescence-average “no enzyme” fluorescence)/(average “DMSO only” fluorescence-average “no enzyme” fluorescence). IC50 and Ki values are very reproducible, falling well within ±2-fold.

T1 sequence (O00187 445-686 limits assumed): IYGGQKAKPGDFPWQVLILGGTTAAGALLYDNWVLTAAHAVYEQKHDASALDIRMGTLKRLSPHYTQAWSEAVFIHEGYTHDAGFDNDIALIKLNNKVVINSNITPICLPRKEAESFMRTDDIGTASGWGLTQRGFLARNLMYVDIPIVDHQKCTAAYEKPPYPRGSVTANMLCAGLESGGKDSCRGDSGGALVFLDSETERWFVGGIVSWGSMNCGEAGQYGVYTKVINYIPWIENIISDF
T1 sequence (O00187 287-444 partner limits assumed): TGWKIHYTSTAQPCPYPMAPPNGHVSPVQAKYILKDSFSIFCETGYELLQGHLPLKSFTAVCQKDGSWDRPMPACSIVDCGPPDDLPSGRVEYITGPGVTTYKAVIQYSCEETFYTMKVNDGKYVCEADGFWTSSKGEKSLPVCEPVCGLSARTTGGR

Ki, < 500 nM:
COC(=O)[C@@H]1C[C@@H](C(=O)NCc2ccc(C(=N)N)cc2)N(C(=O)[C@H](N)CCc2ccccc2)C1 [Compound I-1, Methyl (3R,5S)-1-((R)-2-amino-4-phenylbutanoyl)-5-((4-carbamimidoylbenzyl)carbamoyl)pyrrolidine-3-carboxylate ditrifluoroacetate]
N#C[C@H]1C[C@@H](C(=O)NCc2ccc(C(=N)N)cc2)N(C(=O)[C@H](N)CCc2ccccc2)C1 [Compound I-6, (2S,4S)-1-((R)-2-amino-4-phenylbutanoyl)-N-(4-carbamimidoylbenzyl)-4-cyanopyrrolidine-2-carboxamide ditrifluoroacetate]
N=C(N)c1ccc(CNC(=O)[C@@H]2C[C@H](c3ccccc3)CN2C(=O)[C@H](N)CCc2ccccc2)cc1 [Compound I-3, (2S,4R)-1-((R)-2-amino-4-phenylbutanoyl)-N-(4-carbamimidoylbenzyl)-4-phenylpyrrolidine-2-carboxamide dihydrochloride]
COC[C@H]1C[C@@H](C(=O)NCc2ccc(C(=N)N)cc2)N(C(=O)[C@H](N)CCc2ccccc2)C1 [Compound I-2, (2S,4S)-1-((R)-2-amino-4-phenylbutanoyl)-N-(4-carbamimidoylbenzyl)-4-(methoxymethyl)pyrrolidine-2-carboxamide dihydrochloride]
N=C(N)c1ccc(CNC(=O)[C@@H]2C[C@@H](c3ccccc3)CN2C(=O)[C@H](N)CCc2ccccc2)cc1 [Compound I-11, (2S,4S)-1-((R)-2-amino-4-phenylbutanoyl)-N-(4-carbamimidoylbenzyl)-4-phenylpyrrolidine-2-carboxamide dihydrochloride]
N=C(N)c1ccc(CNC(=O)[C@@H]2CC(n3cccn3)CN2C(=O)[C@H](N)CCc2ccccc2)cc1 (stereo partly drawn) [Compound I-22, Dihydrochloride]
